Measured values published in patent US20160295860A1, “A NOVEL COMPOSITION AND METHOD OF USE TO CONTROL PATHOGENS AND PREVENT DISEASES IN SEEDS” (AGRI-NÉO INC., priority 2013, published 2016).

Columns and labels:
[1] = tested on: Total count Aerobic bacteria; experiment: Total aerobic count on seeds, grains and spices sprayed with sanitizing solutions; type: cell-based
Protocol: (§1) Seeds were mechanically cleaned and spread in stainless steel containers. Each 100 grams seeds were sprayed with 4 ml total solutions descried above via conventional trigger vaporizer. This solution is equivalent to 40 L disinfecting solution total sprayed on 1-ton seeds. Seeds, grains and spices were selected to represent all families and types of seeds, grains and spices. Another criteria was to select seeds and grains contaminated with a high count of total aerobic bacteria, yeast, mold, E. coli, Salmonella sp. and other pathogenic microorganisms.
(§2) Seeds, grains and spices treated were: • Whole dried pea, • Split pea dried, • Pea fiber, • Vanilla, • Chia, • Sprouted flax and chia, • Flax, • Hemp, and • Black pepper seeds

Y&M (yeast, mold) = experiment: Yeast and mold (Y&M) count on seeds, grains and spices sprayed with sanitizing solutions; type: cell-based; conditions: for Y&M, n1: replicate n1; for Y&M, n2: replicate n2
Protocol: as §1, §2

[2] = Whole dried pea, 40 L per 1 ton
[3] = Whole split pea, 40 L per 1 ton

Compound	Conclusion in words on bactericidal efficacy ([1]; Black pepper, 40 L per 1 ton)	Conclusion in words on bactericidal efficacy ([1]; Hemp, 40 L per 1 ton)	Conclusion in words on bactericidal efficacy ([1]; Pea fiber, 40 L per 1 ton)	Conclusion in words on bactericidal efficacy ([1]; Sprouted flax and chia)	Conclusion in words on bactericidal efficacy ([1]; Vanilla, 40 L per 1 ton)	Conclusion in words on bactericidal efficacy [1, 2]	Conclusion in words on bactericidal efficacy [1, 3]	Y&M, Av (Y&M (yeast, mold); Pea fiber)	Y&M, n1 (Y&M (yeast, mold); Pea fiber)	Y&M, n2 (Y&M (yeast, mold); Pea fiber)	Y&M, Av (Y&M (yeast, mold); Whole dried pea)	Y&M, n1 (Y&M (yeast, mold); Whole dried pea)	Y&M, n2 (Y&M (yeast, mold); Whole dried pea)	Y&M, Av (Y&M (yeast, mold); Whole split pea)	Y&M, n1 (Y&M (yeast, mold); Whole split pea)	Y&M, n2 (Y&M (yeast, mold); Whole split pea)
CCO [2- Alcohol - ethanol, ethanol]	not a strong bactericidal agent	not a strong bactericidal agent	not a strong bactericidal agent	bactericidal agent but not very strong	not a strong bactericidal agent	not a strong bactericidal agent	not a strong bactericidal agent	Y&M not detected	n1, n2 not detected	n1, n2 not detected	Y&M not detected	n1, n2 not detected	n1, n2 not detected	Y&M not detected	n1, n2 not detected	n1, n2 not detected
CC(=O)OO [Peracetic acid]	strong bactericidal agent	strong bactericidal agent	strong bactericidal agent		strong bactericidal agent	strong bactericidal agent	strong bactericidal agent									
